Assay results as given in article PMC3914206.

Columns and labels:
Type in all cases: binding
Details in all cases: Compound Concentration 10 µM
[1] = target: T1, panel of 442 kinases (Homo sapiens, UniProt P22607, G697C)
T1 construct: purchased KINOMEscan
From the text: (§1) We assessed the selectivity of members of this scaffold using the KINOMEscan methodology across a near comprehensive panel of 442 kinases [[18,27]].

[2] = target: T2, panel of 442 kinases (Homo sapiens, UniProt P48730)
T2 construct: purchased KINOMEscan
T2 sequence (P48730 whole entry): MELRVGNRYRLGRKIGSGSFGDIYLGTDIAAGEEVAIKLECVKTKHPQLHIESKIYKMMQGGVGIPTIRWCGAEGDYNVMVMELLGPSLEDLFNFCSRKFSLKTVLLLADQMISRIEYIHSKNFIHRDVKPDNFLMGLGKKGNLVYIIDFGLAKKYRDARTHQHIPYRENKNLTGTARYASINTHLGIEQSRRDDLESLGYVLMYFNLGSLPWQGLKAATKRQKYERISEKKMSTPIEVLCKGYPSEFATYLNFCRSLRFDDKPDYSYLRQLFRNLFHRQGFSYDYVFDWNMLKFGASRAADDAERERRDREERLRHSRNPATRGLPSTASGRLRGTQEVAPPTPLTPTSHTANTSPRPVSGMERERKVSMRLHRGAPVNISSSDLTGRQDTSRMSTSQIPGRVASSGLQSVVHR
From the text: as §1

[3] = target: T3, panel of 442 kinases (Homo sapiens, UniProt O60674)
T3 construct: purchased KINOMEscan
T3 sequence (O60674 whole entry): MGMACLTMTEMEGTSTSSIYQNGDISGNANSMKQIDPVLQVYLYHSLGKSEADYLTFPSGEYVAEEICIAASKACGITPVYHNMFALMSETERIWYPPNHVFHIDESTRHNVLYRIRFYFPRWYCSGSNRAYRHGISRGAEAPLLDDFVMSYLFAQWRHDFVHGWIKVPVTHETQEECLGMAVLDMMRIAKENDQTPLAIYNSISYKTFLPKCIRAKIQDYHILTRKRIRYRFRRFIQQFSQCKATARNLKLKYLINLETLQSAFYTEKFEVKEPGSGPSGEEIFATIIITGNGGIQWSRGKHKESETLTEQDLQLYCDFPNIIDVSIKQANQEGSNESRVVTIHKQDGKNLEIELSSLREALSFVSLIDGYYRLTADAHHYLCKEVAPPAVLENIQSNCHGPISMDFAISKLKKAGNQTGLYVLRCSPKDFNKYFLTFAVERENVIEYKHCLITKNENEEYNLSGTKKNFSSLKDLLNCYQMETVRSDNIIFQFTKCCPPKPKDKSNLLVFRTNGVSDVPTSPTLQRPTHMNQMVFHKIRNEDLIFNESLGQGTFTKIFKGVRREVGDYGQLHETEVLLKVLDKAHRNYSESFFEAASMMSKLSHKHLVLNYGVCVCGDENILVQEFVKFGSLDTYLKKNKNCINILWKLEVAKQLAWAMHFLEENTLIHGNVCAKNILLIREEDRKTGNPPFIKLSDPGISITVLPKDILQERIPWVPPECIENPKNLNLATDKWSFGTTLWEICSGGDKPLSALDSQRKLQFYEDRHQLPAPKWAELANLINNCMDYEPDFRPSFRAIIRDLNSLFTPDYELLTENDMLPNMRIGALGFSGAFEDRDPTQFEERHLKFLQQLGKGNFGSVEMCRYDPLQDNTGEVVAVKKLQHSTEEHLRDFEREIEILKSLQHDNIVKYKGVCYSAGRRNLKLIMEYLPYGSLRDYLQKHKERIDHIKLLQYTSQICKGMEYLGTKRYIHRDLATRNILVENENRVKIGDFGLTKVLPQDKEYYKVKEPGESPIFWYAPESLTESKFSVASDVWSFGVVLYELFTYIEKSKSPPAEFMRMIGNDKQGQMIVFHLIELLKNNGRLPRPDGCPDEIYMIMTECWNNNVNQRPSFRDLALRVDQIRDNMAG
From the text: as §1

T1 sequence (P22607 23-806 G697C): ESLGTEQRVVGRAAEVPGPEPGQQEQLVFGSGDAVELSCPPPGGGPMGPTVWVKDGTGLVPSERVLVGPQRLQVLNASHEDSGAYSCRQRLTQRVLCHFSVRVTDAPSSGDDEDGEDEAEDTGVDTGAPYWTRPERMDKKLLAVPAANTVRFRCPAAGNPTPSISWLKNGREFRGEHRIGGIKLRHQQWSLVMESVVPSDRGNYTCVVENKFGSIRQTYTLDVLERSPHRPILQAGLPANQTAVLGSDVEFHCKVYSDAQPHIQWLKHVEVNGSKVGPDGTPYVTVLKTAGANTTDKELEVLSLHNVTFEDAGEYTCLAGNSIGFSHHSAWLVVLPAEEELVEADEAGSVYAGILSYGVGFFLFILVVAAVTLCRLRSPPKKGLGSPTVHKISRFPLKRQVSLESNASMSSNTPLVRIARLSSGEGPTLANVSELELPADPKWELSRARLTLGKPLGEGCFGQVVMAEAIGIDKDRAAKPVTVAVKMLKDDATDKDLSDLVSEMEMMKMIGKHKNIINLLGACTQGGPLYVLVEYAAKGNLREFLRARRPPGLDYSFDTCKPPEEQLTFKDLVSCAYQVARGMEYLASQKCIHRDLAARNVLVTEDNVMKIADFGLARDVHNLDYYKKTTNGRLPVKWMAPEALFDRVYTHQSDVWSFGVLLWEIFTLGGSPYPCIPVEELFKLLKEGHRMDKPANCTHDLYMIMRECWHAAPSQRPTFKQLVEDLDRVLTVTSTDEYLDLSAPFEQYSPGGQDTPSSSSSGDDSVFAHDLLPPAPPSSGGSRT

Row | SMILES | KINOMEscan: FGFR3(G697C) [1] | KINOMEscan: CSNK1D [2] | KINOMEscan: JAK2(JH1domain-catalytic) [3]
1 | COc1cc(C(=O)N2CCC(N3CCN(C)CC3)CC2)ccc1Nc1ncc2c(n1)N(C1CCCC1)c1ccccc1C(=O)N2C [Compound 25, 11-cyclopentyl-2-((2-methoxy-4-(4-(4-methylpiperazin-1-yl)piperidine-1-carbonyl)phenyl)amino)-5-methyl-5H-benzo[e]pyrimido[5,4-b][1,4]diazepin-6(11H)-one] | 100 | 98 | 95
2 | CCOc1cc(C(=O)N2CCC(N3CCN(C)CC3)CC2)ccc1Nc1ncc2c(n1)N(C1CCCC1)c1ccccc1C(=O)N2C [Compound 26] | 100 | 100 | 100
3 | COc1cc(C(=O)N2CCC(N3CCN(C)CC3)CC2)ccc1Nc1ncc2c(n1)N1CCc3cccc(c31)C(=O)N2C [Compound 24] | 80 | 60 | –
4 | COc1cc(C(=O)N2CCC(N3CCN(C)CC3)CC2)ccc1Nc1ncc2c(n1)N(C)c1ccccc1C(=O)N2C [15 (LRRK2-IN-1)] | 85 | 81 | 70
